This is an account of results in US9492508B2, “Parathyroid hormone analogs and uses thereof” (The General Hospital Corporation, priority 2010, dated 2016).

Structures are written as SMILES. Square brackets hold non-standard residues; d marks the D form. Peptide text beside a SMILES is read from it. hArg = N=C(N)NCCCC[C@H](N)C(=O)O; Aib = CC(C)(N)C(=O)O

Series [1] can be described thus: Peptide pharmacokinetics in TPTX rats.
Series [2] can be described thus: Repetitive daily dosing in TPTX rats (10 days). Type of series: in vivo, rat. As to conditions: calcitriol 0.2 μg/kg oral daily 10 days. As to the method:
FIGS. 20A-20D are graphs showing effects of once-daily SP-PTH on serum and urine Ca in TPTX rats. TPTX and sham-control rats were treated once daily, for 10 days, via sc. injection with either vehicle (Sham and TPTX) or SP-PTH (SEQ ID NO:11) (1, 2. 4, or 8 nmol/kg), or with 1,25(OH)2D (0.075 or 0.2 μg/kg. orn). After the last injection on day 10, the rats were placed in metabolic cages, and jugular vein blood was obtained at 8 (FIG. 20A) and 24 hrs (FIG. 20B); urine was collected for the intervals 0-8 (FIG. 20C) and 8-24 hrs (FIG. 20D); means±s.e.m: n=5; ′˜, P vs vehicle <005.
In therapeutic use in humans, one would administer doses sufficient to only normalize blood Ca. A key experiment is to determine if it is indeed feasible to normalize sCa following a repetitive dosing regimen. We thus performed the experiment of FIGS. 20A-2D, in which TPTX rats were treated daily for 10 days with SP-PTH at doses of 1, 2, 4 and 8 nmol/kg (s.c). For comparison, 1,25(OH)2-vitamin-D (calcitriol) at doses of 0.075 and 0.2 mcg/kg (oral) were used for the same time periods.

In another series the target is T1, rat PTHR1 (R0) (Rattus norvegicus, UniProt P25961).
T1 sequence (P25961 27-591): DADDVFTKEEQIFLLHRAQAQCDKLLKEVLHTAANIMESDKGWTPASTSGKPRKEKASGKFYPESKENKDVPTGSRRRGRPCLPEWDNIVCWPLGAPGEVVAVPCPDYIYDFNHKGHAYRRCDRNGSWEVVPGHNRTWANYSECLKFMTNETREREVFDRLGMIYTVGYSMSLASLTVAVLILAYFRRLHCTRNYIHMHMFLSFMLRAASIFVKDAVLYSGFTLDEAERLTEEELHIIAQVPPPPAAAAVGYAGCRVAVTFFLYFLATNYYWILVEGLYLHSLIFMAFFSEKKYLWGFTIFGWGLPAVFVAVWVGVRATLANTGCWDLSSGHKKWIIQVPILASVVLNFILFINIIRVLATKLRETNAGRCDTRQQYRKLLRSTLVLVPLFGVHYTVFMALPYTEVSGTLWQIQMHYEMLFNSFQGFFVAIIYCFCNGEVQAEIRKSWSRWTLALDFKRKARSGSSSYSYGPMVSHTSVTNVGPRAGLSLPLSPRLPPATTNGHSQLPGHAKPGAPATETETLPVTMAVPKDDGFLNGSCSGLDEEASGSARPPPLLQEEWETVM
Description: Competition binding, R0 conformation of rat PTHR1. To be noted: R0 conformation; mean of 4 experiments; read-out: Binding rat PTHR1 IC50 (Log M) R0 (converted). An excerpt:
Briefly, the R^0 form of the receptor can be favored by addition of the non-hydrolyzable nucleotide analog GTPγS. The RG form can be favored, for example, by co-transfection of cells with a negative dominant Gαs subunit. […] Data are means of four experiments, each performed in duplicate. Curves were fit to the data using Graph-Pad Prism 4.0.

The subject of the next series is MC3T3-E1 cells. Description: cAMP RIA in intact MC3T3-E1 cells. Type of series: cell-based, mouse. As to conditions: 30 min, room temperature, IBMX. As to the method: cAMP stimulating activity of these polypeptides was also assessed, using two different methods: a radioimmunoassay (RIA; FIG. 2) and a cAMP responsive element fused to a luciferase gene (FIG. 3). Briefly, the RIA cAMP assays were performed in intact MC3T3-E1 cells, a mouse pre-osteoblastic cell line, in 96-well plates, as described by Okazaki et al. (Proc Natl Acad Sci USA 105:16525-30, 2008). […] The cAMP contents of the HCl lysates were then determined by RIA. Data are means of six experiments, each performed in duplicate. Curves were fit to the data using Graph-Pad Prism 4.0.

Where [3] appears, read: Crl:CD(SD), rat, in vivo, iv, 24.3 nmol/kg.
Setting [4] is: TPTX rats, 24.3 nmol/kg intravenously, mean.

Consider `CC[C@H](C)[C@H](NC(=O)[C@H](CCC(=O)O)NC(=O)[C@H](CO)NC(=O)[C@@H](NC(=O)[C@@H](N)CO)C(C)C)C(=O)N[C@@H](CCC(N)=O)C(=O)N[C@@H](CC(C)C)C(=O)N[C@@H](CCSC)C(=O)N[C@@H](Cc1c[nH]cn1)C(=O)N[C@@H](CC(N)=O)C(=O)N[C@@H](CC(C)C)C(=O)NCC(=O)N[C@@H](CCCCN)C(=O)N[C@@H](Cc1c[nH]cn1)C(=O)N[C@@H](CC(C)C)C(=O)N[C@@H](CC(N)=O)C(=O)N[C@@H](CO)C(=O)N[C@@H](CCSC)C(=O)N[C@@H](CCC(=O)O)C(=O)N[C@@H](CCCNC(=N)N)C(=O)N[C@H](C(=O)N[C@@H](CCC(=O)O)C(=O)N[C@@H](Cc1c[nH]c2ccccc12)C(=O)N[C@@H](CC(C)C)C(=O)N[C@@H](CCCNC(=N)N)C(=O)N[C@@H](CCCCN)C(=O)N[C@@H](CCCCN)C(=O)N[C@@H](CC(C)C)C(=O)N[C@@H](CCC(N)=O)C(=O)N[C@@H](CC(=O)O)C(=O)N[C@H](C(=O)N[C@@H](Cc1c[nH]cn1)C(=O)N[C@@H](CC(N)=O)C(=O)N[C@@H](Cc1ccccc1)C(=O)N[C@H](C(=O)N[C@@H](C)C(=O)N[C@@H](CC(C)C)C(=O)NCC(=O)N[C@@H](C)C(=O)N1CCC[C@H]1C(=O)N[C@@H](CC(C)C)C(=O)N[C@@H](C)C(=O)N1CCC[C@H]1C(=O)N[C@@H](CCCNC(=N)N)C(=O)N[C@@H](CC(=O)O)C(=O)N[C@@H](C)C(=O)NCC(=O)N[C@@H](CO)C(=O)N[C@@H](CCC(N)=O)C(=O)N[C@@H](CCCNC(=N)N)C(=O)N1CCC[C@H]1C(=O)N[C@@H](CCCNC(=N)N)C(=O)N[C@@H](CCCCN)C(=O)N[C@@H](CCCCN)C(=O)N[C@@H](CCC(=O)O)C(=O)N[C@@H](CC(=O)O)C(=O)N[C@@H](CC(N)=O)C(=O)N[C@H](C(=O)N[C@@H](CC(C)C)C(=O)N[C@H](C(=O)N[C@@H](CCC(=O)O)C(=O)N[C@@H](CO)C(=O)N[C@@H](Cc1c[nH]cn1)C(=O)N[C@@H](CCC(=O)O)C(=O)N[C@@H](CCCCN)C(=O)N[C@@H](CO)C(=O)N[C@@H](CC(C)C)C(=O)NCC(=O)N[C@@H](CCC(=O)O)C(=O)N[C@@H](C)C(=O)N[C@@H](CC(=O)O)C(=O)N[C@@H](CCCCN)C(=O)N[C@@H](C)C(=O)N[C@@H](CC(=O)O)C(=O)N[C@H](C(=O)N[C@@H](CC(N)=O)C(=O)N[C@H](C(=O)N[C@@H](CC(C)C)C(=O)N[C@H](C(=O)N[C@@H](CCCCN)C(=O)N[C@@H](C)C(=O)N[C@@H](CCCCN)C(=O)N[C@@H](CO)C(=O)N[C@@H](CCC(N)=O)C(=O)O)[C@@H](C)O)C(C)C)C(C)C)C(C)C)C(C)C)C(C)C)C(C)C)C(C)C` [hPTH (1-84), hPTH(1-84)], for which, in series [1] (setting [3]), the MRT was 3.58 min, the Vd was determined as 0.0662 L/kg, the clearance stood at 17.2 mL/min/kg and the half-life is 5.44 min. In series [1] (setting [4]), this compound showed an AUCinf of 1663 pmol·min/mL and an AUClast of 1663 pmol·min/mL.
As to `C=C1/C(=C\C=C2/CCC[C@]3(C)[C@@H]([C@H](C)CCCC(C)(C)O)CC[C@@H]23)C[C@@H](O)C[C@@H]1O` [calcitriol, 1,25(OH)2-vitamin-D, reference compound], in series [2], the sCa achieved fell in the range of 8 to 9 mg/dL and the urine calcium result is given as “elevated urine calcium”.
As to `CC[C@H](C)[C@H](NC(=O)[C@H](CCC(=O)O)NC(=O)C(C)(C)NC(=O)[C@@H](NC(=O)[C@H](C)N)C(C)C)C(=O)N[C@@H](CCC(N)=O)C(=O)N[C@@H](CC(C)C)C(=O)N[C@@H](CCSC)C(=O)N[C@@H](Cc1c[nH]cn1)C(=O)N[C@@H](CCC(N)=O)C(=O)N[C@@H](CCCCNC(=N)N)C(=O)N[C@@H](C)C(=O)N[C@@H](CCCCN)C(=O)N[C@@H](Cc1c[nH]c2ccccc12)C(=O)N[C@@H](CC(C)C)C(=O)N[C@@H](CC(N)=O)C(=O)N[C@@H](CO)C(=O)N[C@@H](CCSC)C(=O)N[C@@H](CCCNC(=N)N)C(=O)N[C@@H](CCCNC(=N)N)C(=O)N[C@H](C(=O)N[C@@H](CCC(=O)O)C(=O)N[C@@H](Cc1c[nH]c2ccccc12)C(=O)N[C@@H](CC(C)C)C(=O)N[C@@H](CCCNC(=N)N)C(=O)N[C@@H](CCCCN)C(=O)N[C@@H](CCCCN)C(=O)N[C@@H](CC(C)C)C(=O)N[C@@H](CCC(N)=O)C(=O)N[C@@H](CC(=O)O)C(=O)N[C@H](C(=O)N[C@@H](Cc1c[nH]cn1)C(=O)N[C@@H](CC(N)=O)C(=O)N[C@@H](Cc1ccccc1)C(N)=O)C(C)C)C(C)C` [M-PTH(1-34), M-PTH(1-34).NH2, reference compound] (H-AV[Aib]EIQLMHQ[hArg]AKWLNSMRRVEWLRKKLQDVHNF-NH2; N-terminus assumed), the IC50 on rat PTHR1 (R0) was 1.48 nM. In the series with MC3T3-E1 cells, the EC50 is 0.048 nM and the “cAMP MC3T3-E1 cells Emax (pmole/well)” value was found to be 56.3 ± 13.4 pmole/well. Besides, in the series with MC3T3-E1 cells (6 experiments), the “cAMP MC3T3-E1 cells EC50 (Log M)” value is on record as −10.3 ± 0.1 Log M.
